# ChEMBL document CHEMBL2073914, “Are MDCK cells transfected with the human MRP2 gene a good model of the human intestinal mucosa?” (Pharm Res, 2002)
# What was measured:
# Format in all cases: functional, cell-based
# [1] = molecular target: T1, ATP-binding cassette sub-family C member 2 (Homo sapiens, UniProt Q92887); assay: TP_TRANSPORTER: inhibition of Vinblastine transepithelial transport (basal to apical) in MRP2-expressing MDCK cells
# [2] = molecular target: T1, ATP-binding cassette sub-family C member 2; assay: TP_TRANSPORTER: inhibition of Vinblastine transepithelial transport (basal to apical)(GF120918: 12 uM) in MRP2-expressing MDCK cells
# [3] = molecular target: T1, ATP-binding cassette sub-family C member 2; assay: TP_TRANSPORTER: inhibition of Vinblastine transepithelial transport (basal to apical)(Quinidine: 15 uM) in MRP2-expressing MDCK cells
# T1 sequence (Q92887 whole entry): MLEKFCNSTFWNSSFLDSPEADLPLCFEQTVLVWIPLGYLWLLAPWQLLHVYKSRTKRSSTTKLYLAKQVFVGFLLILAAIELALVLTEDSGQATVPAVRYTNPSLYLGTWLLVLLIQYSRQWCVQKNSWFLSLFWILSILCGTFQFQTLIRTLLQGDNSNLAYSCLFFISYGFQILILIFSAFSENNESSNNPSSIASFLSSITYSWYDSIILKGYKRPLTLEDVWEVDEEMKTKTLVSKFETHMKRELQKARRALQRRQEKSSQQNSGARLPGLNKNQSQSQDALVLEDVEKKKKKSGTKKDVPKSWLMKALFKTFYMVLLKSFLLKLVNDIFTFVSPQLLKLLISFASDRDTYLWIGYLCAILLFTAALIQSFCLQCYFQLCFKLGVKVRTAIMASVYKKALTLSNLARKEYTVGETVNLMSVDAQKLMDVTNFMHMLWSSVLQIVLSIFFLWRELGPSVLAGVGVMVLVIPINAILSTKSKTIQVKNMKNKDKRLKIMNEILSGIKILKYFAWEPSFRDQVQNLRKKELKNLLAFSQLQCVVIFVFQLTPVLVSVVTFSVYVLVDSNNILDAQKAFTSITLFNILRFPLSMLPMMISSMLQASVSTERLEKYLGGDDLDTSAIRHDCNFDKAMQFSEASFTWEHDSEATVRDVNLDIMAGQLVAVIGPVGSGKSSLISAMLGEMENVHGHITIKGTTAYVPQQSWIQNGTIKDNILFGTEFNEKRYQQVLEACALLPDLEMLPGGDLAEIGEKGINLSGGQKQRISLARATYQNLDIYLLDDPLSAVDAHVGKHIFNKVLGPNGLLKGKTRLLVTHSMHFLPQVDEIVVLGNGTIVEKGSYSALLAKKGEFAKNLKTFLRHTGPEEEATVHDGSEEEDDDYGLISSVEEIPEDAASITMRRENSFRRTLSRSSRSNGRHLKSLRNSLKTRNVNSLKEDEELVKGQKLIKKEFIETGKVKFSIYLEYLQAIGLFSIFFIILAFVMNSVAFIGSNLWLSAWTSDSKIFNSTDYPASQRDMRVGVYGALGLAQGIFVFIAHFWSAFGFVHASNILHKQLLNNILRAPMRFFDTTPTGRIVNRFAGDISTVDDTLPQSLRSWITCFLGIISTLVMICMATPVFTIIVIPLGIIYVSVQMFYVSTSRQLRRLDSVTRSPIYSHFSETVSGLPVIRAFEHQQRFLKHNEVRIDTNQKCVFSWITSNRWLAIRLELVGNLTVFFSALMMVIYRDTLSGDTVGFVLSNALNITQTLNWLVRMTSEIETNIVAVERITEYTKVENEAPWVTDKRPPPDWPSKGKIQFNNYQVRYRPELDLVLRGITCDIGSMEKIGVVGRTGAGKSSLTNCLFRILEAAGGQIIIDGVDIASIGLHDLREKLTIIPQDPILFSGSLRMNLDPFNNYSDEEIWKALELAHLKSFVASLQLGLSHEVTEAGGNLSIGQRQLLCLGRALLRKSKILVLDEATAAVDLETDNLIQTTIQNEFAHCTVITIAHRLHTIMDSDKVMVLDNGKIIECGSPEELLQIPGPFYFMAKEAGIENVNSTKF
Compound,Ki [1],also measured
COc1cccc2c1C(=O)c1c(O)c3c(c(O)c1C2=O)C[C@@](O)(C(C)=O)C[C@@H]3O[C@H]1C[C@H](N)[C@H](O)[C@H](C)O1 [DAUNORUBICIN],49.4 µM,–
COc1cc2c(cc1OC)CN(CCc1ccc(NC(=O)c3cccc4c(=O)c5cccc(OC)c5[nH]c34)cc1)CC2.Cl [ELACRIDAR HYDROCHLORIDE],–,Ki [2]: is not an inhibitor [Ki=No inhibition]
C=C[C@H]1CN2CC[C@H]1C[C@@H]2[C@@H](O)c1ccnc2ccc(OC)cc12 [QUINIDINE],–,Ki [3]: is not an inhibitor [Ki=No inhibition]
CC[C@]1(O)C[C@H]2CN(CCc3c([nH]c4ccccc34)[C@@](C(=O)OC)(c3cc4c(cc3OC)N(C=O)[C@H]3[C@@](O)(C(=O)OC)[C@H](OC(C)=O)[C@]5(CC)C=CCN6CC[C@]43[C@@H]65)C2)C1 [VINCRISTINE],802 µM,–

# Further lines, with some results ahead:
Ki [1],Compound,also measured
756 µM,COc1cc([C@@H]2c3cc4c(cc3[C@@H](O[C@@H]3O[C@@H]5CO[C@@H](C)O[C@H]5[C@H](O)[C@H]3O)[C@H]3COC(=O)[C@H]23)OCO4)cc(OC)c1O [ETOPOSIDE],–
26.4 µM,CN(C)C(=O)CCSC(SCCC(=O)O)c1cccc(/C=C/c2ccc3ccc(Cl)cc3n2)c1 (configuration not stated) [MK-571],–
295 µM,COC(=O)[C@H]1[C@H]2C[C@@H]3c4[nH]c5cc(OC)ccc5c4CCN3C[C@H]2C[C@@H](OC(=O)c2cc(OC)c(OC)c(OC)c2)[C@@H]1OC [RESERPINE],–
